From ChEMBL document CHEMBL1201862, “PubChem BioAssay data set” (2004)
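Where inhibition never reached the appropriate level, the endpoint shown equals the highest concentration tested. Otherwise, values were interpolated linearly from a five-concentration, 48-hour dose response in 96-well plates. GI50 is the concentration that inhibits growth by half.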 Activity calls are given as the source filed them. Rule as the data show it: active = GI50 up to about 1.1 µM and inactive = higher.

Tests used:
Test in all cases: NCI anticancer screen, dose series, 48 h
A498 = tested on: A498
CAKI-1 = tested on: CAKI-1
SF-539 = tested on: SF-539
UO-31 = tested on: UO-31
SK-MEL-5 = tested on: SK-MEL-5
EKVX = tested on: EKVX
SNB-75 = tested on: SNB-75
OVCAR-3 = tested on: OVCAR-3
UACC-62 = tested on: UACC-62
U-251 = tested on: U-251
MCF7 = tested on: MCF7
NCI-H23 = tested on: NCI-H23
HL-60 = tested on: HL-60
HCC 2998 = tested on: HCC 2998
MOLT-4 = tested on: MOLT-4
ACHN = tested on: ACHN
SF-295 = tested on: SF-295
SK-OV-3 = tested on: SK-OV-3
COLO 205 = tested on: COLO 205
MDA-MB-231 = tested on: MDA-MB-231
Malme-3M = tested on: Malme-3M
SNB-19 = tested on: SNB-19
IGROV-1 = tested on: IGROV-1
RXF 393 = tested on: RXF 393
OVCAR-8 = tested on: OVCAR-8
HT-29 = tested on: HT-29
HCT-116 = tested on: HCT-116
OVCAR-4 = tested on: OVCAR-4
MDA-MB-435 = tested on: MDA-MB-435
UACC-257 = tested on: UACC-257
Hs-578T = tested on: Hs-578T
SR = tested on: SR
NCI-H226 = tested on: NCI-H226
HOP-92 = tested on: HOP-92
BT-549 = tested on: BT-549
CCRF-CEM = tested on: CCRF-CEM
HCT-15 = tested on: HCT-15
PC-3 = tested on: PC-3
K562 = tested on: K562
NCI/ADR-RES = tested on: NCI/ADR-RES
TK-10 = tested on: TK-10
M14 = tested on: M14
NCI-H460 = tested on: NCI-H460
NCI-H522 = tested on: NCI-H522
RPMI-8226 = tested on: RPMI-8226
SK-MEL-28 = tested on: SK-MEL-28
HOP-62 = tested on: HOP-62
MDA-N = tested on: MDA-N
786-0 = tested on: 786-0
A549 = tested on: A549
SK-MEL-2 = tested on: SK-MEL-2
T47D = tested on: T47D
KM12 = tested on: KM12
DU-145 = tested on: DU-145
OVCAR-5 = tested on: OVCAR-5
SF-268 = tested on: SF-268
SW-620 = tested on: SW-620
SN12C = tested on: SN12C
LOX IMVI = tested on: LOX IMVI

NS(=O)(=O)c1ccc(NC(=O)Nc2cccc3ccccc23)cc1
GI50 (A498): 22.5 µM (inactive)
GI50 (CAKI-1): > 100 µM (inactive)
GI50 (SF-539): 23.8 µM (inactive)
GI50 (UO-31): 16.1 µM (inactive)
GI50 (SK-MEL-5): > 100 µM (inactive)
GI50 (EKVX): 28.4 µM (inactive)
GI50 (SNB-75): 22.5 µM (inactive)
GI50 (OVCAR-3): 46.9 µM (inactive)
GI50 (UACC-62): 23.6 µM (inactive)
GI50 (U-251): 18.3 µM (inactive)
GI50 (MCF7): 31.2 µM (inactive)
GI50 (NCI-H23): 34.4 µM (inactive)
GI50 (HL-60): > 100 µM (inactive)
GI50 (HCC 2998): 27.6 µM (inactive)
GI50 (MOLT-4): > 100 µM (inactive)
GI50 (ACHN): 33.2 µM (inactive)
GI50 (SF-295): 35.6 µM (inactive)
GI50 (SK-OV-3): 42.8 µM (inactive)
GI50 (COLO 205): 86.9 µM (inactive)
GI50 (MDA-MB-231): 19.4 µM (inactive)
GI50 (Malme-3M): 35.7 µM (inactive)
GI50 (SNB-19): 21.1 µM (inactive)
GI50 (IGROV-1): 53.6 µM (inactive)
GI50 (RXF 393): 30.5 µM (inactive)
GI50 (OVCAR-8): 20.9 µM (inactive)
GI50 (HT-29): 60.3 µM (inactive)
GI50 (HCT-116): 39.8 µM (inactive)
GI50 (OVCAR-4): 42.2 µM (inactive)
GI50 (MDA-MB-435): 81.8 µM (inactive)
GI50 (UACC-257): > 100 µM (inactive)
GI50 (Hs-578T): 42.2 µM (inactive)
GI50 (SR): 72.3 µM (inactive)
GI50 (NCI-H226): 27.2 µM (inactive)
GI50 (HOP-92): 35.6 µM (inactive)
GI50 (BT-549): 87.1 µM (inactive)
GI50 (CCRF-CEM): > 100 µM (inactive)
GI50 (HCT-15): 91.4 µM
GI50 (PC-3): 20.2 µM (inactive)
GI50 (K562): > 100 µM (inactive)
GI50 (NCI/ADR-RES): 46 µM (inactive)
GI50 (TK-10): 31 µM (inactive)
GI50 (M14): 86.9 µM (inactive)
GI50 (NCI-H460): 40.8 µM (inactive)
GI50 (NCI-H522): 19.4 µM (inactive)
GI50 (RPMI-8226): > 100 µM (inactive)
GI50 (SK-MEL-28): 39.4 µM (inactive)
GI50 (HOP-62): 34.4 µM (inactive)
GI50 (MDA-N): 54.8 µM (inactive)
GI50 (786-0): 19 µM (inactive)
GI50 (A549): 40.7 µM (inactive)
GI50 (SK-MEL-2): > 100 µM (inactive)
GI50 (T47D): 33.5 µM (inactive)
GI50 (KM12): > 100 µM (inactive)
GI50 (DU-145): 23.8 µM (inactive)
GI50 (OVCAR-5): > 100 µM (inactive)
GI50 (SF-268): 19.9 µM (inactive)
GI50 (SW-620): 44.8 µM (inactive)
GI50 (SN12C): 45.5 µM (inactive)
GI50 (LOX IMVI): 43.1 µM (inactive)

COc1ccc(C(CC(C)=O)c2c(O)c3ccccc3oc2=O)cc1OC (configuration not stated)
GI50 (A498): > 100 µM (inactive)
GI50 (CAKI-1): > 100 µM (inactive)
GI50 (SF-539): > 100 µM (inactive)
GI50 (UO-31): > 100 µM (inactive)
GI50 (SK-MEL-5): > 100 µM (inactive)
GI50 (EKVX): > 100 µM (inactive)
GI50 (SNB-75): > 100 µM (inactive)
GI50 (OVCAR-3): > 100 µM (inactive)
GI50 (UACC-62): > 100 µM (inactive)
GI50 (U-251): > 100 µM (inactive)
GI50 (MCF7): > 100 µM (inactive)
GI50 (NCI-H23): > 100 µM (inactive)
GI50 (HL-60): > 100 µM (inactive)
GI50 (HCC 2998): > 100 µM (inactive)
GI50 (MOLT-4): > 100 µM (inactive)
GI50 (ACHN): > 100 µM (inactive)
GI50 (SF-295): > 100 µM (inactive)
GI50 (SK-OV-3): > 100 µM (inactive)
GI50 (COLO 205): > 100 µM (inactive)
GI50 (MDA-MB-231): > 100 µM (inactive)
GI50 (Malme-3M): > 100 µM (inactive)
GI50 (SNB-19): > 100 µM (inactive)
GI50 (IGROV-1): > 100 µM (inactive)
GI50 (RXF 393): > 100 µM (inactive)
GI50 (OVCAR-8): > 100 µM (inactive)
GI50 (HT-29): > 100 µM (inactive)
GI50 (HCT-116): > 100 µM (inactive)
GI50 (OVCAR-4): > 100 µM (inactive)
GI50 (MDA-MB-435): > 100 µM (inactive)
GI50 (UACC-257): > 100 µM (inactive)
GI50 (Hs-578T): > 100 µM (inactive)
GI50 (SR): > 100 µM (inactive)
GI50 (NCI-H226): > 100 µM (inactive)
GI50 (HOP-92): > 100 µM (inactive)
GI50 (BT-549): > 100 µM (inactive)
GI50 (CCRF-CEM): > 100 µM (inactive)
GI50 (HCT-15): > 100 µM
GI50 (PC-3): > 100 µM (inactive)
GI50 (K562): > 100 µM (inactive)
GI50 (NCI/ADR-RES): > 100 µM (inactive)
GI50 (TK-10): > 100 µM (inactive)
GI50 (M14): > 100 µM (inactive)
GI50 (NCI-H460): > 100 µM (inactive)
GI50 (NCI-H522): > 100 µM (inactive)
GI50 (RPMI-8226): > 100 µM (inactive)
GI50 (SK-MEL-28): > 100 µM (inactive)
GI50 (HOP-62): > 100 µM (inactive)
GI50 (MDA-N): > 100 µM (inactive)
GI50 (786-0): > 100 µM (inactive)
GI50 (A549): > 100 µM (inactive)
GI50 (SK-MEL-2): > 100 µM (inactive)
GI50 (T47D): > 100 µM (inactive)
GI50 (KM12): > 100 µM (inactive)
GI50 (DU-145): > 100 µM (inactive)
GI50 (OVCAR-5): > 100 µM (inactive)
GI50 (SF-268): > 100 µM (inactive)
GI50 (SW-620): > 100 µM (inactive)
GI50 (SN12C): > 100 µM (inactive)
GI50 (LOX IMVI): > 100 µM (inactive)

C=C1C(=O)O[C@@H]2CC(CO)=C([C@@H](C)CCCO)[C@@H](OC(=O)/C(C)=C\C)[C@H]12
GI50 (A498): 27.8 µM (inactive)
GI50 (CAKI-1): 22.1 µM (inactive)
GI50 (SF-539): 22.2 µM (inactive)
GI50 (UO-31): 16.8 µM (inactive)
GI50 (SK-MEL-5): 13.9 µM (inactive)
GI50 (EKVX): 13.7 µM (inactive)
GI50 (SNB-75): 27.2 µM (inactive)
GI50 (OVCAR-3): 7.64 µM (inactive)
GI50 (UACC-62): 16 µM (inactive)
GI50 (U-251): 15 µM (inactive)
GI50 (MCF7): 10.2 µM (inactive)
GI50 (NCI-H23): 13.3 µM (inactive)
GI50 (HL-60): 1.83 µM (inactive)
GI50 (HCC 2998): 15.3 µM (inactive)
GI50 (MOLT-4): 10.8 µM (inactive)
GI50 (ACHN): 15.1 µM (inactive)
GI50 (SF-295): 16.9 µM (inactive)
GI50 (SK-OV-3): 25.9 µM (inactive)
GI50 (COLO 205): 14.5 µM (inactive)
GI50 (MDA-MB-231): 24.9 µM (inactive)
GI50 (Malme-3M): 13.3 µM (inactive)
GI50 (SNB-19): 20.1 µM (inactive)
GI50 (IGROV-1): 14.5 µM (inactive)
GI50 (RXF 393): 11.9 µM (inactive)
GI50 (OVCAR-8): 20.6 µM (inactive)
GI50 (HT-29): 12.9 µM (inactive)
GI50 (HCT-116): 8.07 µM (inactive)
GI50 (OVCAR-4): 22.2 µM (inactive)
GI50 (MDA-MB-435): 15.8 µM (inactive)
GI50 (UACC-257): 15.6 µM (inactive)
GI50 (Hs-578T): 21.1 µM (inactive)
GI50 (SR): 1.88 µM (inactive)
GI50 (NCI-H226): 28.4 µM (inactive)
GI50 (HOP-92): 19.6 µM (inactive)
GI50 (BT-549): 14.6 µM (inactive)
GI50 (CCRF-CEM): 2.29 µM (inactive)
GI50 (HCT-15): 13.7 µM
GI50 (PC-3): 16 µM (inactive)
GI50 (K562): 5.22 µM (inactive)
GI50 (NCI/ADR-RES): 20.2 µM (inactive)
GI50 (TK-10): 18.8 µM (inactive)
GI50 (M14): 23.5 µM (inactive)
GI50 (NCI-H460): 9.98 µM (inactive)
GI50 (NCI-H522): 2.62 µM (inactive)
GI50 (RPMI-8226): 5.05 µM (inactive)
GI50 (SK-MEL-28): 12 µM (inactive)
GI50 (HOP-62): 34.9 µM (inactive)
GI50 (MDA-N): 15.1 µM (inactive)
GI50 (786-0): 14.8 µM (inactive)
GI50 (A549): 21.6 µM (inactive)
GI50 (SK-MEL-2): 20.9 µM (inactive)
GI50 (T47D): 10.4 µM (inactive)
GI50 (KM12): 17.3 µM (inactive)
GI50 (DU-145): 8.71 µM (inactive)
GI50 (OVCAR-5): 28.5 µM (inactive)
GI50 (SF-268): 15.6 µM (inactive)
GI50 (SW-620): 14.7 µM (inactive)
GI50 (SN12C): 16.2 µM (inactive)
GI50 (LOX IMVI): 8.39 µM (inactive)
